From patent US20260001914A1, “MACROCYCLIC PEPTIDES TARGETING KRAS” (Merck Sharp & Dohme LLC, priority 2022, published 2026)
*1 amine or outer side, *2 acyl side, *3 side chain or, on linkers, in order; H or OH if unused. Where a SMILES comes first, the peptide text is derived from it. Bridges are numbered along the chain shown (N, C = ends). [ ]: non-standard residue; d: D form. Ala(pyrimidin-5-yl) = N[C@@H](Cc1cncnc1)C(=O)O; Phe(4-CH2NH2) = NCc1ccc(C[C@H](N)C(=O)O)cc1; X7 = C[C@H](N[*:1])C12CC(C(=O)[*:2])(C1)C2; X46 = O=C([C@H](Cc1cccnc1F)N[*:1])[*:2]; X40 = CC(C)(F)C[C@H](N[*:1])C(=O)[*:2]; 1Nal = N[C@@H](Cc1cccc2ccccc12)C(=O)O; Ala(cPent) = N[C@@H](CC1CCCC1)C(=O)O; Phe(2-F) = N[C@@H](Cc1ccccc1F)C(=O)O; NMe3Pal = CN[C@@H](Cc1cccnc1)C(=O)O; X1 = O=C(C12CC(CN[*:1])(C1)C2)[*:2]; X17 = O=C([C@H](CCCCF)N[*:1])[*:2]; NMeF = CN[C@@H](Cc1ccccc1)C(=O)O; PhLac = O=C(O)[C@@H](O)Cc1ccccc1; X4 = O=C([C@H](CCCF)N[*:1])[*:2]; 3Pal = N[C@@H](Cc1cccnc1)C(=O)O; d(αMeC) = C[C@@](N)(CS)C(=O)O; Cba = N[C@@H](CC1CCC1)C(=O)O; hLeu = CC(C)CC[C@H](N)C(=O)O; NMeS = CN[C@@H](CO)C(=O)O; NMeA = CN[C@@H](C)C(=O)O; Nle = CCCC[C@H](N)C(=O)O; Nva = CCC[C@H](N)C(=O)O

Biological target: phosphorylation levels of ERK1/2 in AsPC-1 (homozygous KRAS-G12D) cells (Homo sapiens, UniProt P01116, G12D)
Sequence (P01116 1-186 G12D): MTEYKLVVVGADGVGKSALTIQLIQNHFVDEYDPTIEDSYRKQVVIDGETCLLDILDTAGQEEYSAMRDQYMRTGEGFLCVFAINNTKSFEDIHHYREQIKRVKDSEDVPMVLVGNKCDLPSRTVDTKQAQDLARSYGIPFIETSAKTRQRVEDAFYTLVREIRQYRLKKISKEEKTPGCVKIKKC
Assay: Cellular phospho-ERK assay in AsPC-1 cells (Alpha Screen), assay medium without fetal bovine serum;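 note: signal taken as phospho-ERK over total ERK per well, both detected in one multiplex bead assay, EC50 from four-parameter logistic fit of dose-response curves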
Assay type: cell-based
Conditions: phospho-ERK AlphaScreen, 18 h
Procedure: Assay plate was incubated at 37° C. 5% CO2 for the indicated length of time. […] Phosphorylated ERK and total ERK levels were detected by Alpha SureFire Ultra Multiplex pERK kit (PerkinElmer MPSU-PTERK) using 5 μL, acceptor bead mix and 5 μL donor bead mix, both prepared following the manufacturer's protocol. Plates were sealed using aluminum sealing tape (Costar 07-200-683) during incubation at ambient temperature with constant shaking at 300 rpm for 1 h (both acceptor and donor). Assay plates were read on a Envision Xcite Multilabel Reader (PerkinElmer 1040900) at ambient temperature, with emission at 535 nm (Total ERK) and emission at 615 nm (Phospho ERK). Ratio of pERK vs total ERK in each well was used as the final readout. Dose response curves and EC50 were analyzed using a 4-parameter logistic equation in GraphPad Prism software.

Compound	EC50 [µM]
CCCC[C@@H]1NC(=O)[C@H](Cc2cccnc2)NC(=O)[C@H](C)N(C)C(=O)[C@H](Cc2ccccc2)OC(=O)C23CC(CNC(=O)[C@H](Cc4cccnc4)N(C)C(=O)[C@H](CCC)NC(=O)[C@H](Cc4ccccc4F)NC1=O)(C2)C3 [compound 116, cyclo(FLac-NMeA-3Pal-Nle-Phe2F-Nva-NMe3Pal-amBCP)] (cyclo([3Pal][Nle][Phe(2-F)][Nva][NMe3Pal][X1][PhLac][NMeA]))	> 50.8
CCCC[C@@H]1NC(=O)[C@H](Cc2cccnc2F)NC(=O)[C@H](C)N(C)C(=O)[C@H](Cc2ccccc2)OC(=O)C23CC(CNC(=O)[C@H](Cc4cccnc4)N(C)C(=O)[C@H](CCCC)NC(=O)[C@H](Cc4ccccc4F)NC1=O)(C2)C3 [compound 117, cyclo(FLac-NMeA~3Pal2F-Nle-Phe2F-Nle-NMe3Pal-amBCP)] (cyclo([NMe3Pal][X1][PhLac][NMeA][X46][Nle][Phe(2-F)][Nle]))	50.2
CCCC[C@@H]1NC(=O)[C@H](Cc2cccnc2)NC(=O)[C@H](CO)N(C)C(=O)[C@H](Cc2ccccc2)OC(=O)C23CC(CNC(=O)[C@H](Cc4cccnc4)N(C)C(=O)[C@H](CCCC)NC(=O)[C@H](Cc4ccccc4F)NC1=O)(C2)C3 [compound 118, cyclo(FLac-NMeS-3Pal-Nle-Phe2F-Nle-NMe3Pal-amBCP)] (cyclo([3Pal][Nle][Phe(2-F)][Nle][NMe3Pal][X1][PhLac][NMeS]))	> 50.8
CCCC[C@@H]1NC(=O)[C@H](Cc2cncnc2)NC(=O)[C@H](CO)N(C)C(=O)[C@H](Cc2ccccc2)OC(=O)C23CC(CNC(=O)[C@H](Cc4cccnc4)N(C)C(=O)[C@H](CCCC)NC(=O)[C@H](Cc4ccccc4F)NC1=O)(C2)C3 [compound 119, cyclo(FLac-NMeS-PyrimAla-Nle-Phe2F-Nle-NMe3Pal-amBCP)] (cyclo([NMe3Pal][X1][PhLac][NMeS][Ala(pyrimidin-5-yl)][Nle][Phe(2-F)][Nle]))	> 50.8
CCCC[C@@H]1NC(=O)[C@H](Cc2ccccc2F)NC(=O)[C@H](CCCF)NC(=O)[C@H](Cc2cccnc2)NC(=O)[C@H](C)N(C)C(=O)[C@H](Cc2ccccc2)OC(=O)C23CC(CNC(=O)[C@H](Cc4cccnc4)N(C)C1=O)(C2)C3 [compound 120, cyclo(FLac-NMeA-3Pal-NvaF-Phe2F-Nle-NMe3Pal-amBCP)] (cyclo([3Pal][X4][Phe(2-F)][Nle][NMe3Pal][X1][PhLac][NMeA]))	> 50.8
CCCC[C@@H]1NC(=O)[C@H](Cc2cncnc2)NC(=O)[C@H](C)N(C)C(=O)[C@H](Cc2ccccc2)OC(=O)C23CC(C2)(C3)[C@H](C)NC(=O)[C@H](Cc2cccnc2)N(C)C(=O)[C@H](CCCC)NC(=O)[C@H](Cc2ccccc2F)NC1=O [compound 121, cyclo(FLac-NMeA-PyrimAla-Nle-Phe2F-Nle-NMe3Pal-SMeamBCP)] (cyclo([NMe3Pal][X7][PhLac][NMeA][Ala(pyrimidin-5-yl)][Nle][Phe(2-F)][Nle]))	23.4
CCCC[C@@H]1NC(=O)[C@H](Cc2cccnc2)NC(=O)[C@H](C)N(C)C(=O)[C@H](Cc2ccccc2)OC(=O)C23CC(CNC(=O)[C@H](Cc4cccnc4)N(C)C(=O)[C@H](CCC(C)C)NC(=O)[C@H](Cc4ccccc4F)NC1=O)(C2)C3 [compound 124, cyclo(FLac-NMeA-3Pal-Nle-Phe2F-hL-NMe3Pal-amBCP)] (cyclo([3Pal][Nle][Phe(2-F)][hLeu][NMe3Pal][X1][PhLac][NMeA]))	4.65
CCCC[C@@H]1NC(=O)[C@H](Cc2ccccc2F)NC(=O)[C@H](CC2CCC2)NC(=O)[C@H](Cc2cncnc2)NC(=O)[C@H](C)N(C)C(=O)[C@H](Cc2ccccc2)OC(=O)C23CC(CNC(=O)[C@H](Cc4cccnc4)N(C)C1=O)(C2)C3 [compound 125, cyclo(FLac-NMeA-PyrimAla-cBuA-Phe2F-Nle-NMe3Pal-amBCP)] (cyclo([Cba][Phe(2-F)][Nle][NMe3Pal][X1][PhLac][NMeA][Ala(pyrimidin-5-yl)]))	45
CCCC[C@@H]1NC(=O)[C@H](Cc2ccccc2F)NC(=O)[C@H](CC2CCCC2)NC(=O)[C@H](Cc2cncnc2)NC(=O)[C@H](C)N(C)C(=O)[C@H](Cc2ccccc2)OC(=O)C23CC(CNC(=O)[C@H](Cc4cccnc4)N(C)C1=O)(C2)C3 [compound 126, cyclo(FLac-NMeA-PyrimAla-cPeA-Phe2F-Nle-NMe3Pal-amBCP)] (cyclo([Ala(cPent)][Phe(2-F)][Nle][NMe3Pal][X1][PhLac][NMeA][Ala(pyrimidin-5-yl)]))	17.4
CCCC[C@@H]1NC(=O)[C@H](Cc2ccccc2F)NC(=O)[C@H](CCC(C)C)NC(=O)[C@H](Cc2cncnc2)NC(=O)[C@H](C)N(C)C(=O)[C@H](Cc2ccccc2)OC(=O)C23CC(CNC(=O)[C@H](Cc4cccnc4)N(C)C1=O)(C2)C3 [compound 127, cyclo(FLac-NMeA-PyrimAla-hL-Phe2F-Nle-NMe3Pal-amBCP)] (cyclo([NMe3Pal][X1][PhLac][NMeA][Ala(pyrimidin-5-yl)][hLeu][Phe(2-F)][Nle]))	> 50.8
C[C@H]1C(=O)N[C@@H](Cc2cncnc2)C(=O)N[C@@H](CCCCF)C(=O)N[C@@H](Cc2ccccc2F)C(=O)N[C@@H](CCCCF)C(=O)N(C)[C@@H](Cc2ccccc2)C(=O)NCC23CC(C2)(C3)C(=O)O[C@@H](Cc2ccccc2)C(=O)N1C [compound 128, cyclo(FLac-NMeA-PyrimAla-NleF-Phe2F-NleF-NMeF-amBCP)] (cyclo([NMeA][Ala(pyrimidin-5-yl)][X17][Phe(2-F)][X17][NMeF][X1][PhLac]))	3.72
CCCC[C@@H]1NC(=O)[C@H](Cc2ccccc2F)NC(=O)[C@H](CC(C)C)NC(=O)[C@H](Cc2cncnc2)NC(=O)[C@H](C)N(C)C(=O)[C@H](Cc2ccccc2)OC(=O)C23CC(CNC(=O)[C@H](Cc4cccnc4)N(C)C1=O)(C2)C3 [compound 129, cyclo(FLac-NMeA-PyrimAla-L-Phe2F-Nle-NMe3Pal-amBCP)] (cyclo([PhLac][NMeA][Ala(pyrimidin-5-yl)]L[Phe(2-F)][Nle][NMe3Pal][X1]))	> 50.8
CCCC[C@@H]1NC(=O)[C@H](Cc2ccccc2F)NC(=O)[C@H](CCCCF)NC(=O)[C@H](Cc2cncnc2)NC(=O)[C@H](C)N(C)C(=O)[C@H](Cc2ccccc2)OC(=O)C23CC(CNC(=O)[C@H](Cc4ccccc4)N(C)C1=O)(C2)C3 [compound 130, cyclo(FLac-NMeA-PyrimAla-NleF-Phe2F-Nle-NMeF-amBCP)] (cyclo([NMeA][Ala(pyrimidin-5-yl)][X17][Phe(2-F)][Nle][NMeF][X1][PhLac]))	2.03
CCCC[C@@H]1NC(=O)[C@H](Cc2cncnc2)NC(=O)[C@H](C)N(C)C(=O)[C@H](Cc2ccccc2)OC(=O)C23CC(CNC(=O)[C@H](Cc4ccccc4)N(C)C(=O)[C@H](CCCCF)NC(=O)[C@H](Cc4ccccc4F)NC1=O)(C2)C3 [compound 131, cyclo(FLac-NMeA-PyrimAla-Nle-Phe2F-NleF-NMeF-amBCP)] (cyclo([NMeA][Ala(pyrimidin-5-yl)][Nle][Phe(2-F)][X17][NMeF][X1][PhLac]))	2.33
CCCC[C@@H]1NC(=O)[C@H](Cc2cncnc2)NC(=O)[C@H](C)N(C)C(=O)[C@H](Cc2ccccc2)OC(=O)C23CC(CNC(=O)[C@H](Cc4ccccc4)N(C)C(=O)[C@H](CCC(C)C)NC(=O)[C@H](Cc4ccccc4F)NC1=O)(C2)C3 [compound 132, cyclo(FLac-NMeA-PyrimAla-Nle-Phe2F-hL-NMeF-amBCP)] (cyclo([NMeA][Ala(pyrimidin-5-yl)][Nle][Phe(2-F)][hLeu][NMeF][X1][PhLac]))	1.11
CC(C)CC[C@@H]1NC(=O)[C@H](Cc2ccccc2F)NC(=O)[C@H](CCCF)NC(=O)[C@H](Cc2cncnc2)NC(=O)[C@H](C)N(C)C(=O)[C@H](Cc2ccccc2)OC(=O)C23CC(CNC(=O)[C@H](Cc4ccccc4)N(C)C1=O)(C2)C3 [compound 133, cyclo(FLac-NMeA-PyrimAla-NvaF-Phe2F-hL-NMeF-amBCP)] (cyclo([NMeA][Ala(pyrimidin-5-yl)][X4][Phe(2-F)][hLeu][NMeF][X1][PhLac]))	2.26
CC(C)CC[C@@H]1NC(=O)[C@H](Cc2ccccc2F)NC(=O)[C@H](CC2CCC2)NC(=O)[C@H](Cc2cncnc2)NC(=O)[C@H](C)N(C)C(=O)[C@H](Cc2ccccc2)OC(=O)C23CC(CNC(=O)[C@H](Cc4ccccc4)N(C)C1=O)(C2)C3 [compound 134, cyclo(FLac-NMeA-PyrimAla-cBuA-Phe2F-hL-NMeF-amBCP)] (cyclo([Cba][Phe(2-F)][hLeu][NMeF][X1][PhLac][NMeA][Ala(pyrimidin-5-yl)]))	0.33
CC(C)CC[C@@H]1NC(=O)[C@H](Cc2ccccc2F)NC(=O)[C@H](CC2CCCC2)NC(=O)[C@H](Cc2cncnc2)NC(=O)[C@H](C)N(C)C(=O)[C@H](Cc2ccccc2)OC(=O)C23CC(CNC(=O)[C@H](Cc4ccccc4)N(C)C1=O)(C2)C3 [compound 135, cyclo(FLac-NMcA-PyrimAla-cPeA-Phe2F-hL-NMeF-amBCP)] (cyclo([Ala(cPent)][Phe(2-F)][hLeu][NMeF][X1][PhLac][NMeA][Ala(pyrimidin-5-yl)]))	0.285
CC(C)CC[C@@H]1NC(=O)[C@H](Cc2ccccc2F)NC(=O)[C@H](CC(C)(C)F)NC(=O)[C@H](Cc2cncnc2)NC(=O)[C@H](C)N(C)C(=O)[C@H](Cc2ccccc2)OC(=O)C23CC(CNC(=O)[C@H](Cc4ccccc4)N(C)C1=O)(C2)C3 [compound 136, cyclo(FLac-NMeA-PyrimAla-Leu3F-Phe2F-hL-NMeF-amBCP)] (cyclo([NMeA][Ala(pyrimidin-5-yl)][X40][Phe(2-F)][hLeu][NMeF][X1][PhLac]))	7.73
CCCC[C@@H]1NC(=O)[C@H](Cc2ccc(O)cc2)NC(=O)[C@H](CC2CCCCC2)NC(=O)[C@H](CCCCN)NC(=O)[C@H](CCCNC(=N)N)NC(=O)[C@H](Cc2cccc3ccccc23)NC(=O)CSC[C@H](C(N)=O)NC(=O)[C@H](Cc2ccccc2)N(C)C1=O [compound 139, cyclo(INal-R-K-Cha-Y-Nle-NMeF-dCl-ClAc)]	> 50.8
CCCC[C@@H]1NC(=O)[C@H](Cc2ccc(CN)cc2)NC(=O)[C@H](CCCNC(=N)N)NC(=O)[C@H](Cc2cccc3ccccc23)NC(=O)CSC[C@](C)(C(=O)O)NC(=O)[C@H](Cc2ccccc2)N(C)C(=O)[C@H](CCCC)NC(=O)[C@H](Cc2ccc(O)cc2)NC1=O [compound 144, cyclo(1Nal-R-Phe4CH2NH2-Nle-Y-Nle-NMeF-daMeC-ClAc)] ({CH2CO}-[1Nal]R[Phe(4-CH2NH2)][Nle]Y[Nle][NMeF][d(αMeC)]-OH; thioether N-8)	> 50.8
